Where two headings read alike, the source gives them in different places.

One test concerns the target T1, Cannabinoid CB1 Receptor (Homo sapiens, UniProt P21554).
T1 construct: expressed in transfected cells
Put plainly: Binding assay for CB1 agonists or inverse agonists (radioligand competition, membranes of transfected SK-N-MC cells).

For a further test, the target named is T2, Cannabinoid CB2 Receptor (Homo sapiens, UniProt P34972).
T2 construct: expressed in transfected cells
The experiment in a line: Binding assay for CB2 agonists or inverse agonists (radioligand competition, membranes of transfected SK-N-MC cells). Particulars: read-out: Cannabinoid CB2 Receptor Binding percent inhibition.

The next test has as its target CB1 receptor (human) (Homo sapiens, UniProt P21554). The experiment in a line: cell-based.

CB1 receptor (human), sequence (P21554 whole entry): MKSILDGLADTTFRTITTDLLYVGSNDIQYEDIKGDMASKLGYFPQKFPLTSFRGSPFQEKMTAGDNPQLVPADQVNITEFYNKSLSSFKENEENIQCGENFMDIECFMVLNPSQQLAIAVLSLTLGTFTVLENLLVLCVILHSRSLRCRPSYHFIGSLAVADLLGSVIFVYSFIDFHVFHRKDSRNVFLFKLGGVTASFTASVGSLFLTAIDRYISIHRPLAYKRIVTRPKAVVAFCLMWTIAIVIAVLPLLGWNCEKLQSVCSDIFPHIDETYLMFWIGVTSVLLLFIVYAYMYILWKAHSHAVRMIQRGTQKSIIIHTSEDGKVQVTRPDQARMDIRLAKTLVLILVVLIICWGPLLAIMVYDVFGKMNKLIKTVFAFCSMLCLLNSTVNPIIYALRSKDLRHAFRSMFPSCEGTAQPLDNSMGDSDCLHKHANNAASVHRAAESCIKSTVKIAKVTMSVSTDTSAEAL
T1 sequence (P21554 whole entry): as above
T2 sequence (P34972 whole entry): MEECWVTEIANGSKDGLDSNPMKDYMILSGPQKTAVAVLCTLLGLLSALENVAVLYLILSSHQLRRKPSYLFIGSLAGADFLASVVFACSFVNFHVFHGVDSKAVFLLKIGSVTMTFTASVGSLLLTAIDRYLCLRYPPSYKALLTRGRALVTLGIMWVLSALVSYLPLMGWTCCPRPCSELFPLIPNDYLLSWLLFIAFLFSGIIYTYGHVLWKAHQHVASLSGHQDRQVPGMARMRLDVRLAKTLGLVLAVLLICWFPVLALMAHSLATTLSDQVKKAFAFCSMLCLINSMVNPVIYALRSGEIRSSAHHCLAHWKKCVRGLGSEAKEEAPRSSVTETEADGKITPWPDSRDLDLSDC

For `CC(C)(C)OC(=O)N1C/C(=C\c2ccc(F)cc2)c2c(c(C(=O)NN3CCCCC3)nn2-c2ccc(Cl)cc2Cl)C1` [Cpd 9, (7E)-1-(2,4-dichloro-phenyl)-7-(4-fluoro-benzylidene)-3-(piperidin-1-ylcarbamoyl)-1,4,6,7-tetrahydro-pyrazolo[4,3-c]pyridine-5-carboxylic acid tert-butyl ester], the inhibition at 0.2 µM on Cannabinoid CB1 Receptor (read-out: Cannabinoid CB1 Receptor Binding percent inhibition) was 55%; at Cannabinoid CB2 Receptor, 8%. The same molecule had an EC50 at CB1 receptor (human) of 20 nM.
On Cannabinoid CB1 Receptor, `CC(=O)N1C/C(=C\c2ccc(F)cc2)c2c(c(C(=O)NN3CCCCC3)nn2-c2ccc(Cl)cc2Cl)C1` [Cpd 10, (7E)-5-acetyl-1-(2,4-dichloro-phenyl)-7-(4-fluoro-benzylidene)-4,5,6,7-tetrahydro-1H-pyrazolo[4,3-c]pyridine-3-carboxylic acid piperidin-1-ylamide] came in with a half-inhibitory concentration (IC50) of 70 nM. Further, the inhibition at 0.2 µM at Cannabinoid CB2 Receptor is 63%. At CB1 receptor (human), this molecule returned an EC50 of 20 nM.
The corresponding values for `COC(=O)N1C/C(=C\c2ccc(F)cc2)c2c(c(C(=O)NN3CCCCC3)nn2-c2ccc(Cl)cc2Cl)C1` [Cpd 11, (7E)-1-(2,4-dichloro-phenyl)-7-(4-fluoro-benzylidene)-3-(piperidin-1-ylcarbamoyl)-1,4,6,7-tetrahydro-pyrazolo[4,3-c]pyridine-5-carboxylic acid methyl ester] are 50 nM, 15% and 40 nM.
The corresponding values for `O=C(NN1CCCCC1)c1nn(-c2ccc(Cl)cc2Cl)c2c1CNC/C2=C\c1ccc(F)cc1` [Cpd 12, (7E)-1-(2,4-dichloro-phenyl)-7-(4-fluoro-benzylidene)-4,5,6,7-tetrahydro-1H-pyrazolo[4,3-c]pyridine-3-carboxylic acid piperidin-1-ylamide] are 100 nM, 5% and 80 nM.
Molecule `COC(=O)N1C/C(=C\c2ccc(F)cc2)c2c(c(C(=O)N[C@H](C)C3CCCCC3)nn2-c2ccc(Cl)cc2Cl)C1` [Cpd 13, (7E)-3-[(1R)-1-cyclohexyl-ethylcarbamoyl]-1-(2,4-dichloro-phenyl)-7-(4-fluoro-benzylidene)-1,4,6,7-tetrahydro-pyrazolo[4,3-c]pyridine-5-carboxylic acid methyl ester] yielded an IC50 at Cannabinoid CB1 Receptor of 2 nM. Also, the inhibition at 0.2 µM at Cannabinoid CB2 Receptor (test concentration of 0.2 μM, compounds without an IC50 binding value) came to 11%. Also, at CB1 receptor (human), it took 10 nM to reach a half-maximal effect (EC50).
In turn, `CC(=O)N1C/C(=C\c2ccc(F)cc2)c2c(c(C(=O)N[C@H](C)C3CCCCC3)nn2-c2ccc(Cl)cc2Cl)C1` [Cpd 14, (7E)-5-acetyl-1-(2,4-dichloro-phenyl)-7-(4-fluoro-benzylidene)-4,5,6,7-tetrahydro-1H-pyrazolo[4,3-c]pyridine-3-carboxylic acid [(1R)-1-cyclohexyl-ethyl]-amide] yielded an IC50 at Cannabinoid CB1 Receptor of 8 nM. For the same molecule, at Cannabinoid CB2 Receptor, the inhibition at 0.2 µM is 16%. At CB1 receptor (human), this molecule registered an EC50 of 4 nM.
On the same counts, the results for `C[C@@H](NC(=O)c1nn(-c2ccc(Cl)cc2Cl)c2c1CNC/C2=C\c1ccc(F)cc1)c1ccccc1` [Cpd 15, (7E)-1-(2,4-dichloro-phenyl)-7-(4-fluoro-benzylidene)-4,5,6,7-tetrahydro-1H-pyrazolo[4,3-c]pyridine-3-carboxylic acid [(1R)-1-phenyl-ethyl]-amide] are 10 nM, 23% and 10 nM.
The molecule `C[C@@H](NC(=O)c1nn(-c2ccc(Cl)cc2Cl)c2c1CN(C(=O)OCc1ccccc1)C/C2=C\c1ccc(F)cc1)c1ccccc1` [Cpd 16, (7E)-1-(2,4-dichloro-phenyl)-7-(4-fluoro-benzylidene)-3-[(1R)-1-phenyl-ethylcarbamoyl]-1,4,6,7-tetrahydro-pyrazolo[4,3-c]pyridine-5-carboxylic acid benzyl ester] had an IC50 at Cannabinoid CB1 Receptor of 20 nM. For the same molecule, the inhibition at 0.2 µM at Cannabinoid CB2 Receptor stood at 27%. Further, the concentration giving a half-maximal response (EC50) on CB1 receptor (human) came out at 60 nM.
The corresponding values for `C[C@@H](NC(=O)c1nn(-c2ccc(Cl)cc2Cl)c2c1CN(S(C)(=O)=O)C/C2=C\c1ccc(F)cc1)c1ccccc1` [Cpd 17] are 2 nM, 36% and 6 nM.
Take `Cc1ccc(S(=O)(=O)N2C/C(=C\c3ccc(F)cc3)c3c(c(C(=O)N[C@H](C)c4ccccc4)nn3-c3ccc(Cl)cc3Cl)C2)cc1` [Cpd 18]: the IC50 at Cannabinoid CB1 Receptor stood at 10 nM. At Cannabinoid CB2 Receptor, the inhibition at 0.2 µM was found to be 48%. This molecule also registered an EC50 on CB1 receptor (human) of 80 nM.
On the same counts, the results for `CCNC(=O)N1C/C(=C\c2ccc(F)cc2)c2c(c(C(=O)N[C@H](C)c3ccccc3)nn2-c2ccc(Cl)cc2Cl)C1` [Cpd 19, (7E)-1-(2,4-dichloro-phenyl)-7-(4-fluoro-benzylidene)-1,4,6,7-tetrahydro-pyrazolo[4,3-c]pyridine-3,5-dicarboxylic acid 5-ethylamide 3-[(1R)-(1-phenyl-ethyl)-amide]] are 7 nM, 10% and 5 nM.
The corresponding values for `CC(NC(=O)c1nn(-c2ccc(Cl)cc2Cl)c2c1CN(C(=O)OC(C)(C)C)C/C2=C\c1ccc(F)cc1)c1ccccn1` (stereo not drawn) [Cpd 20, (7E)-1-(2,4-dichloro-phenyl)-7-(4-fluoro-benzylidene)-3-(1-pyridin-2-yl-ethylcarbamoyl)-1,4,6,7-tetrahydro-pyrazolo[4,3-c]pyridine-5-carboxylic acid tert-butyl ester] are 40 nM, 14% and 20 nM.
As for `CC(NC(=O)c1nn(-c2ccc(Cl)cc2Cl)c2c1CNC/C2=C\c1ccc(F)cc1)c1ccccn1` (stereo not drawn) [Cpd 21, (7E)-1-(2,4-dichloro-phenyl)-7-(4-fluoro-benzylidene)-4,5,6,7-tetrahydro-1H-pyrazolo[4,3-c]pyridine-3-carboxylic acid (1-pyridin-2-yl-ethyl)-amide], the IC50 at Cannabinoid CB1 Receptor stood at 50 nM. Besides, the inhibition at 0.2 µM on Cannabinoid CB2 Receptor worked out at 5%. On CB1 receptor (human), this molecule displayed an EC50 of 70 nM.
In the case of `CC(=O)N1C/C(=C\c2ccc(F)cc2)c2c(c(C(=O)NC(C)c3ccccn3)nn2-c2ccc(Cl)cc2Cl)C1` (stereo not drawn) [Cpd 22, (7E)-5-acetyl-1-(2,4-dichloro-phenyl)-7-(4-fluoro-benzylidene)-4,5,6,7-tetrahydro-1H-pyrazolo[4,3-c]pyridine-3-carboxylic acid (1-pyridin-2-yl-ethyl)-amide], the IC50 on Cannabinoid CB1 Receptor amounted to 30 nM. The inhibition at 0.2 µM at Cannabinoid CB2 Receptor was 2%. This molecule registered an EC50 on CB1 receptor (human) of 4 nM.
The corresponding values for `COC(=O)N1C/C(=C\c2ccc(F)cc2)c2c(c(C(=O)NC(C)c3ccccn3)nn2-c2ccc(Cl)cc2Cl)C1` (stereo not drawn) [Cpd 23, (7E)-1-(2,4-dichloro-phenyl)-7-(4-fluoro-benzylidene)-3-(1-pyridin-2-yl-ethylcarbamoyl)-1,4,6,7-tetrahydro-pyrazolo[4,3-c]pyridine-5-carboxylic acid methyl ester] are 10 nM, 18% and 4 nM.
The corresponding values for `CCNC(=O)N1C/C(=C\c2ccc(F)cc2)c2c(c(C(=O)NC(C)c3ccccn3)nn2-c2ccc(Cl)cc2Cl)C1` (stereo not drawn) [Cpd 24, (7E)-1-(2,4-dichloro-phenyl)-7-(4-fluoro-benzylidene)-1,4,6,7-tetrahydro-pyrazolo[4,3-c]pyridine-3,5-dicarboxylic acid 5-ethylamide 3-[(1-pyridin-2-yl-ethyl)-amide]] are 20 nM, 6% and 20 nM.
The corresponding values for `CC(NC(=O)c1nn(-c2ccc(Cl)cc2Cl)c2c1CN(C(=O)OCc1ccccc1)C/C2=C\c1ccc(F)cc1)c1ccccn1` (stereo not drawn) [Cpd 25, (7E)-1-(2,4-dichloro-phenyl)-7-(4-fluoro-benzylidene)-3-(1-pyridin-2-yl-ethylcarbamoyl)-1,4,6,7-tetrahydro-pyrazolo[4,3-c]pyridine-5-carboxylic acid benzyl ester] are 50 nM, 17% and 90 nM.
As to `Cc1ccc(S(=O)(=O)N2C/C(=C\c3ccc(F)cc3)c3c(c(C(=O)NC(C)c4ccccn4)nn3-c3ccc(Cl)cc3Cl)C2)cc1` (stereo not drawn) [Cpd 26, (7E)-1-(2,4-dichloro-phenyl)-7-(4-fluoro-benzylidene)-5-(toluene-4-sulfonyl)-4,5,6,7-tetrahydro-1H-pyrazolo[4,3-c]pyridine-3-carboxylic acid (1-pyridin-2-yl-ethyl)-amide], the IC50 at Cannabinoid CB1 Receptor turned out to be 30 nM. For the same molecule, the inhibition at 0.2 µM on Cannabinoid CB2 Receptor was 24%. At CB1 receptor (human), this molecule registered a concentration for a half-maximal effect (EC50) of 20 nM.
The corresponding values for `CC(NC(=O)c1nn(-c2ccc(Cl)cc2Cl)c2c1CN(S(C)(=O)=O)C/C2=C\c1ccc(F)cc1)c1ccccn1` (stereo not drawn) [Cpd 27, (7E)-1-(2,4-dichloro-phenyl)-7-(4-fluoro-benzylidene)-5-methanesulfonyl-4,5,6,7-tetrahydro-1H-pyrazolo[4,3-c]pyridine-3-carboxylic acid (1-pyridin-2-yl-ethyl)-amide] are 5 nM, 16% and 6 nM.
On the same counts, the results for `C[C@@H](NC(=O)c1nn(-c2ccc(Cl)cc2Cl)c2c1CNC/C2=C\c1ccc(F)cc1)C1CCCCC1` [Cpd 28, (7E)-1-(2,4-dichloro-phenyl)-7-(4-fluoro-benzylidene)-4,5,6,7-tetrahydro-1H-pyrazolo[4,3-c]pyridine-3-carboxylic acid [(1R)-1-cyclohexyl-ethyl]-amide] are 20 nM, 31% and 8 nM.
The corresponding values for `CC(NC(=O)c1nn(-c2ccc(Cl)cc2Cl)c2c1CN(C)C/C2=C\c1ccc(F)cc1)c1ccccn1` (stereo not drawn) [Cpd 29, (7E)-1-(2,4-dichloro-phenyl)-7-(4-fluoro-benzylidene)-5-methyl-4,5,6,7-tetrahydro-1H-pyrazolo[4,3-c]pyridine-3-carboxylic acid (1-pyridin-2-yl-ethyl)-amide] are 60 nM, 6% and 6 nM.

The values are drawn from patent US20060089378A1 (priority 2004, published 2006).
